Source: paper PMC11519910, “Semisynthetic Ecdysteroid Cinnamate Esters and tert-Butyl Oxime Ether Derivatives with Trypanocidal Activity” (Journal of Natural Products, 2024)
Where two headings read alike, the source gives them in different places.

Columns and labels:
[1] = tested on: T. cruzi; parameters: method as in PMID 30517542; conditions: free acid forms; read-out: IC50, antitrypanosomal activity; cited from earlier work
[2] = tested on: T. cruzi epimastigotes; assay: Trypanocidal activity against epimastigotes (XTT); type: cell-based, Trypanosoma cruzi; conditions: for inhibition at 5 µM: read-out: inhibition of epimastigote proliferation; for IC50: 72 h incubation, read-out: IC50, epimastigote proliferation
Description: Trypanocidal activity against epimastigotes was assessed by XTT (2,3-bis(2-methoxy-4-nitro-5-sulfophenyl)-2H-tetrazolium-5-carboxanilide). Briefly, 1.5 × 10^6 epimastigotes were seeded per well in 96-well plates. The ecdysteroid was added at 8 concentrations ranging from 25 to 0.2 μM for 72 h at 28 °C. […] Following the incubation period, the plates were examined under the microscope for sterility and growth of controls. To the plates, 50 μL of XTT and PMS (phenazine methosulfate, Sigma-Aldrich, MO, USA) solution (XTT and PMS at 0.5 and 0.025 mg/mL, respectively) was added, and the plates were then incubated at 28 °C for 3 h. The parasites were fixed by the addition of 50 μL of MeOH for 15 min before the absorbance was measured at 490 nm on a Tecan plate reader. Results were expressed as percentage cell viability relative to the vehicle control or IC50 values calculated by GraphPad Prism version 8.0. All assessments were performed in triplicates in three independent experiments.

[3] = tested on: T. cruzi amastigotes in CCL39 fibroblasts; assay: Fluorescence microscopy of amastigote replication in infected CCL39 fibroblasts; type: cell-based, Trypanosoma cruzi; conditions: 5 μM, of infection
Description: The host CCL39 cells were seeded in 24-well plates at a density of 20,000 cells/mL. The cells were allowed to adhere for 24 h and infected with trypomastigotes at a multiplicity of 10. On the next day, non-internalized trypomastigotes were washed away, and fresh RPMI with 2% hiFBS was added to the wells along with the test substance. […] The images were analyzed on ImageJ.

[4] = tested on: T. cruzi (GFPY parasite release in trypomastigote-infected RAW264.7 cells); assay: FACS-based quantitation of released parasites from infected RAW264.7 cells; type: cell-based, Trypanosoma cruzi
Description: The host RAW264.7 cells were seeded in 24-well plates at a density of 20,000 cells/mL. The cells were allowed to adhere for 24 h and infected with trypomastigotes at a multiplicity of 10. On the next day, noninternalized trypomastigotes were washed away, and fresh RPMI with 2% hiFBS was added to the wells along with the C44 at various concentrations. […] Three independent experiments in triplicates were performed to determine the activity of the ecdysteroid.

[5] = tested on: RAW264.7 cells; assay: cells; type: cell-based
Description: Cytotoxicity or antiproliferative effects of ecdysteroid against mammalian cells was assessed using MTT (3-(4,5-dimethylthiazol-2-yl)-2,5-diphenyltetrazolium bromide). CHO or RAW264.7 cells were used for screening the compounds. Briefly, the cells were seeded at a density of 2000/well in 96-well plates. After 24 h of incubation at 37 °C and 5% CO2, ecdysteroid ([…]) was added to the cells at various concentrations. In all the experiments, podophyllotoxin was used as the positive control. In all experiments, vehicle controls were included, and the final DMSO concentration was below 0.5%. After 72 h, the plates were examined under an inverted microscope for sterility and growth of controls after the incubation period. The spent medium was removed, and 100 μL of fresh medium containing 0.5 mg/mL of the final concentration of MTT was added to the cells. The plates were incubated for 4 h at 37 °C in 5% CO2. The formazan crystals were solubilized by adding 200 μL of DMSO and mixed thoroughly. The absorbance was determined at 550 nm by using a Tecan plate reader. The values were corrected to the blank medium and vehicle control (DMSO only). Results were expressed as percentage cell viability relative to the vehicle control. Each assay was performed in technical triplicate in three independent experiments.

SMILES | IC50 [1] [µM] | inhibition at 5 µM ([2]; Trypanosoma cruzi, 72 h) [%] | further results
COc1cc(C=CC(=O)O)cc(OC)c1OC [3,4,5-trimethoxycinnamic acid] | > 600 | – | –
COc1ccc(C=CC(=O)O)cc1 [4-methoxycinnamic acid (p-coumaric acid), 4-methoxycinnamic acid] | > 600 | – | –
CC(C)(O)CC[C@H]1OC(C)(C)O[C@]1(C)[C@H]1CC[C@@]2(O)C3=C/C(=N\OC(C)(C)C)[C@@H]4C[C@H]5OC(C)(C)O[C@H]5C[C@]4(C)[C@H]3CC[C@]12C [Compound 24] | – | ≥ 30 | –
CC(C)(O)CC[C@H]1OC(C)(C)O[C@]1(C)[C@H]1CC=C2C3=C/C(=N/OC(C)(C)C)[C@@H]4C[C@H]5OC(C)(C)O[C@H]5C[C@]4(C)[C@H]3CC[C@@]21C [Compound 28] | – | ≥ 30 | –
CC(C)(O)CC[C@@H](OC(=O)/C=C/c1ccccc1)[C@](C)(O)[C@H]1CC[C@@]2(O)C3=CC(=O)[C@@H]4C[C@@H](OC(=O)/C=C/c5ccccc5)[C@@H](O)C[C@]4(C)[C@H]3CC[C@]12C [Compound 39] | – | ≥ 30 | –
CC(C)(O)CC[C@@H](OC(=O)/C=C/c1ccccc1)[C@](C)(O)[C@H]1CC[C@@]2(O)C3=CC(=O)[C@@H]4C[C@@H](O)[C@@H](OC(=O)/C=C/c5ccccc5)C[C@]4(C)[C@H]3CC[C@]12C [Compound 40] | – | ≥ 30 | –
CC(C)(O)CC[C@@H](O)[C@](C)(O)[C@H]1CC=C2C3=C/C(=N\OC(C)(C)C)[C@@H]4C[C@@H](O)[C@@H](O)C[C@]4(C)[C@H]3CC[C@@]21C [Compound 42] | – | < 30 | –
CC(C)(O)CC[C@@H](O)[C@](C)(O)[C@H]1CC=C2C3=C/C(=N/OC(C)(C)C)[C@@H]4C[C@@H](O)[C@@H](O)C[C@]4(C)[C@H]3CC[C@@]21C [Compound 43] | – | < 30 | –
CC(C)(O)CC[C@@H](O)[C@](C)(O)[C@H]1CC=C2C3=C/C(=N\OC(C)(C)C)[C@@H]4C[C@@H](O)[C@@H](OC(=O)/C=C/c5ccccc5)C[C@]4(C)[C@H]3CC[C@@]21C [Compound 44] | – | – | inhibition of amastigote replication [3]: efficiently inhibits amastigote replication; IC50 [2]: 1.7 ± 0.2 µM; IC50 ([2]; Trypanosoma cruzi, 72 h): < 2 µM; IC50 ([4]; Trypanosoma cruzi, 144 h, trypomastigote-infected RAW264.7 cells, FACS after 6 days): 2.7 ± 0.1 µM; inhibition of trypomastigote release ([4]; infected RAW264.7 cells): more than 95%; cytotoxicity on the host cells [5]: moderate cytotoxicity; IC50 ([5]; Mus musculus, RAW264.7, MTT, 72 h of incubation, read-out: IC50, cell proliferation in RAW264.7 cells): 11.6 ± 1.6 µM; selectivity, T. cruzi over RAW264.7 host macrophages ([5]; apparent selectivity, cytotoxicity toward T. cruzi vs host cells): more than 5 fold
COc1ccc(/C=C/C(=O)O)c(OC)c1 [trans-2,4-dimethoxycinnamic acid] | > 600 | – | –
